Source: ChEMBL document CHEMBL3400127, “Synthesis of 6-[(11)C]methyl-m-tyrosine ([(11)C]6MemTyr) for dopamine synthesis imaging in living brain using PET” (Bioorg Med Chem, 2015)

Key:
Details in all cases: in vivo; call rule not given here
Brain = assay: Drug uptake in cynomolgus monkey brain assessed as dopamine synthesis after 60 to 90 mins by PET imaging analysis in presence of carbidopa; format: ADME, tissue-based, Macaca fascicularis
[1] = Drug uptake in cynomolgus monkey striatum after 60 to 90 mins by PET imaging analysis; format: ADME, tissue-based, Macaca fascicularis
[2] = Drug uptake in cynomolgus monkey cortex after 60 to 90 mins by PET imaging analysis; format: ADME, tissue-based, Macaca fascicularis
[3] = Drug uptake in cynomolgus monkey cerebellum after 60 to 90 mins by PET imaging analysis; format: ADME, tissue-based, Macaca fascicularis
[4] = Drug uptake in cynomolgus monkey striatum after 10 mins by PET imaging analysis; format: ADME, tissue-based, Macaca fascicularis
[5] = Drug uptake in cynomolgus monkey cerebellum after 5 mins by PET imaging analysis; format: ADME, Macaca fascicularis
[6] = Half life in cynomolgus monkey cerebellum by PET imaging analysis; format: ADME, tissue-based, Macaca fascicularis
[7] = Drug uptake in cynomolgus monkey striatum after 40 to 60 mins by PET imaging analysis; format: ADME, tissue-based, Macaca fascicularis
[8] = Drug uptake in cynomolgus monkey cerebellum after 40 to 60 mins by PET imaging analysis; format: ADME, tissue-based, Macaca fascicularis

SMILES	Drug uptake (Brain)	Drug uptake [1]	Drug uptake [2]	Drug uptake [3]	Drug uptake [4]	Drug uptake [5]	t1/2 [6] [min]	Drug uptake [7]	Drug uptake [8]
[11CH3]c1ccc(O)cc1C[C@H](N)C(=O)O	Active	Active	Active	Active	Active	Active	30	Active	Active
N[C@@H](Cc1cc(O)c(O)cc1[18F])C(=O)O [FLUORODOPA F 18]	Active	Active	Active	Active	Active	Active	50	Active	Active
